Experimental data reported in patent US12168085B2, “Surgical system and methods of use” (priority 2021, dated 2024).

Assays:
myofibroblast formation = details: Ajmal et al. (2003); cited from earlier work
[1] = time to reach plasma concentrations; format: in vivo; details: when given preoperatively

| SMILES | effect on myofibroblast formation (myofibroblast formation) | time to reach plasma concentrations [1] [min] |
| --- | --- | --- |
| O=S(=O)([O-])CCS.[Na+] [MESNA, sodium 2-mercaptoethane sulfonate] | diminish myofibroblast formation | – |
| NC[C@H]1CC[C@H](C(=O)O)CC1 [tranexamic acid, trans-4-(aminomethyl)cyclohexanecarboxylic acid] | – | 5 to 15 |
